Biological target: Corticotropin releasing factor receptor (Rattus norvegicus, UniProt P47866+P35353)
Experiment: Binding affinity at Corticotropin releasing factor receptor of rat cortical homogenates.

**Q.** Which Ki does the source give for `CCCC(C)n1c(CC)nc2c(-c3ccc(Cl)nc3C)ccnc21` (stereo not drawn) here?
**A.** Its Ki is 6.6 nM.

**Q.** With `CCc1nc2c(-c3ccc(OC)cc3C)ncnc2n1C(C1CC1)C1CC1` as the molecule, how does the Ki read?
**A.** Its Ki is 1.9 nM.

**Q.** With `CCc1nc2c(-c3ccc(OC)nc3C(F)(F)F)ccnc2n1C(C)CC` (stereo not drawn) as the molecule, how does the Ki read?
**A.** Its Ki is 0.7 nM.

**Q.** `CCc1nc2c(-c3ccc(Cl)nc3C)ccnc2n1C(CC)C1CC1` (stereo not drawn) was tested. Which Ki did it give?
**A.** The Ki was 3.3 nM.

**Q.** Which Ki does the source give for `CCCC(C)n1c(CC)nc2c(-c3cnc(OC)cc3C)ccnc21` (stereo not drawn) here?
**A.** The Ki was 17.1 nM.

**Q.** For `CCc1nc2c(-c3ccc(OC)nc3C(F)(F)F)ccnc2n1C(CC)C1CC1` (stereo not drawn), which Ki is on record?
**A.** The Ki was 0.7 nM.

**Q.** For `CCc1nc2c(-c3ccc(OC)nc3C(F)(F)F)ccnc2n1C(C)C1CCC1` (stereo not drawn), which Ki is on record?
**A.** The Ki was 0.8 nM.

**Q.** `CCc1nc2c(-c3ccc(OC)nc3C)ncnc2n1C(C1CC1)C1CC1` was tested. Which Ki did it give?
**A.** The Ki was 1.8 nM.

**Q.** `CCCC(C)n1c(CC)nc2c(-c3ccc(O)nc3C(F)(F)F)ccnc21` (stereo not drawn) was tested. Which Ki did it give?
**A.** The Ki was 602 nM.

**Q.** How did the Ki turn out when `CCc1nc2c(-c3ccc(OC)nc3C)ccnc2n1C(C)CC` (stereo not drawn) was run?
**A.** The Ki was 9.2 nM.

**Q.** `CCc1nc2c(-c3ccc(OC)cc3C)ccnc2n1C(CC)C1CC1` (stereo not drawn) was tested. Which Ki did it give?
**A.** Its Ki is 0.5 nM.

**Q.** How did the Ki turn out when `CCc1nc2c(-c3ccc(OC)nc3C)ccnc2n1C(C)C1CC1` (stereo not drawn) was run?
**A.** Its Ki is 2 nM.

**Q.** `CCCC(C)n1c(CC)nc2c(-c3ccc(OCCO)nc3C(F)(F)F)ccnc21` (stereo not drawn) was tested. Which Ki did it give?
**A.** Its Ki is 10.1 nM.

**Q.** With `CCCC(C)n1c(CC)nc2c(-c3ccc(O)nc3C)ccnc21` (stereo not drawn) as the molecule, how does the Ki read?
**A.** Its Ki is greater than 10000 nM.

**Q.** Which Ki does the source give for `CCc1nc2c(-c3ccc(N(C)C)nc3C)ccnc2n1C(CC)C1CC1` (stereo not drawn) here?
**A.** Its Ki is 7.5 nM.

**Q.** For `CCc1nc2c(-c3ccc(OC)nc3C(F)(F)F)ccnc2n1C(CC)CCOC` (stereo not drawn), which Ki is on record?
**A.** The Ki was 1.6 nM.

**Q.** `CCc1nc2c(-c3ccc(OC)nc3C)ccnc2n1C(C)C1CCC1` (stereo not drawn) was tested. Which Ki did it give?
**A.** The Ki was 2.1 nM.

**Q.** `CCCC(C)n1c(CC)nc2c(-c3ccc(OC)nc3C)ccnc21` (stereo not drawn) was tested. Which Ki did it give?
**A.** The Ki was 1.1 nM.

Source: ChEMBL document CHEMBL1136831, “CRF ligands via Suzuki and Negishi couplings of 3-pyridyl boronic acids or halides with 2-benzyloxy-4-chloro-3-nitropyridine” (Bioorg Med Chem Lett, 2003)
